Values quoted from earlier work, collected in US6960354B1, “Membrane lipid compositions” (Phares Technology BV, priority 1999, dated 2005).

In the case of `O=C(O)c1ccccc1O` [Salicylic acid], the solubility in ethanol (ethanol) is listed as “soluble” and the solubility in water (water) is listed as “only sparingly soluble”.
